Laboratory results from ChEMBL document CHEMBL4334471, “Discovery of 1,8-disubstituted-[1,2,3]triazolo[4,5-c]quinoline derivatives as a new class of Hippo signaling pathway inhibitors” (Bioorg Med Chem Lett, 2019).

Tests used:
[1] = biological target: cAMP-dependent protein kinase catalytic subunit alpha (Homo sapiens) (UniProt P17612); assay: Inhibition of recombinant human PKA assessed as residual activity at 10 uM relative to control
[2] = biological target: Insulin-like growth factor 1 receptor (Homo sapiens) (UniProt P08069); assay: Inhibition of human IGF1R (959 to end residues) assessed as residual activity at 10 uM using KKKSPGEYVNIEFGF as substrate after 40 mins by [gamma-33ATP] radiometric assay relative to control
[3] = biological target: Serine/threonine-protein kinase TBK1 (Homo sapiens) (UniProt Q9UHD2); assay: Inhibition of recombinant full length human TBK1 assessed as residual activity at 10 uM using KRRRALS(p)VASLPGL as substrate incubated for 40 mins in presence of [gamma33P]ATP by scintillation counting based radiometry assay relative to control
Sequence of Serine/threonine-protein kinase TBK1 (Homo sapiens) (Q9UHD2 whole entry): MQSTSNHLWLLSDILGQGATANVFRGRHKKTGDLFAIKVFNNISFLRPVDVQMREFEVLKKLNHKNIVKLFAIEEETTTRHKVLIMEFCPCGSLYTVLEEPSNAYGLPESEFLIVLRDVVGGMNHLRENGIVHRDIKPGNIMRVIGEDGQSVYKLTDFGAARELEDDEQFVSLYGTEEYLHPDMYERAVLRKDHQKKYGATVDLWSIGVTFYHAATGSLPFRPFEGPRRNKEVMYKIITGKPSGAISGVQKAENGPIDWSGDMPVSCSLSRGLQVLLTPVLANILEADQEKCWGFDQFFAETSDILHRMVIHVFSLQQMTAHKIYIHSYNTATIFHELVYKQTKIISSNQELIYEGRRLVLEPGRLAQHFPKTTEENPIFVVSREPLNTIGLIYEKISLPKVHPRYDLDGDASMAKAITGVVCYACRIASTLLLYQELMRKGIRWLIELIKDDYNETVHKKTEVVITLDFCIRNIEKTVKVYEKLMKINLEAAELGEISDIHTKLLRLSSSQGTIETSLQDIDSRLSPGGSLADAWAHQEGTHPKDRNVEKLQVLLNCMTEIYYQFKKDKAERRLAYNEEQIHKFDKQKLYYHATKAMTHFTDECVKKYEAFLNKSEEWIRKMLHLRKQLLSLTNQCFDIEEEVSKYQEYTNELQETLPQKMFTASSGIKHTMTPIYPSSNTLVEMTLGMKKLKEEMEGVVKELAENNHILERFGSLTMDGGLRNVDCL

[4] = test system: Serine/threonine-protein kinase Chk2 (Homo sapiens), O96017 [I157T]; assay: Inhibition of recombinant human CHK2 I157T mutant (5 to end residues) assessed as residual activity at 10 uM using KKKVSRSGLYRSPSMPENLNRPR as substrate incubated for 40 mins in presence of [gamma-33ATP] by scintillation counting based radiometry assay relative to control
Sequence of Serine/threonine-protein kinase Chk2 (Homo sapiens), O96017 [I157T] (O96017 whole entry I157T): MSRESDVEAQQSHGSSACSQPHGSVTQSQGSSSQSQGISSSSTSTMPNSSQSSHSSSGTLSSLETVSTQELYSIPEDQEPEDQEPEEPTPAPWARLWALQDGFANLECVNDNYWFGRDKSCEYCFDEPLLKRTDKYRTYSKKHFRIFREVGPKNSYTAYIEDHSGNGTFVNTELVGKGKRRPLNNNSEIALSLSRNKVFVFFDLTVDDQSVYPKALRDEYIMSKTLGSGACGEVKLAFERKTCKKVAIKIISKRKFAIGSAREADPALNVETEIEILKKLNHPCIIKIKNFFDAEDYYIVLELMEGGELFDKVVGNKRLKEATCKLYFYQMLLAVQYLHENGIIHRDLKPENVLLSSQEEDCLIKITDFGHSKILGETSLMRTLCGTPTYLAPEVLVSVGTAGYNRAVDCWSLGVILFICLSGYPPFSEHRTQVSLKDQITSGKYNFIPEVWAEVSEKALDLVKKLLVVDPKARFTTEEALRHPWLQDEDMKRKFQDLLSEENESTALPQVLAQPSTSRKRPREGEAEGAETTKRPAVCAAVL

[5] = biological target: T1, Cyclin-dependent kinase 5/CDK5 activator 1 (Homo sapiens) (UniProt Q00535+Q15078); assay: Inhibition of recombinant full length human CDK5/p35 assessed as residual activity at 10 uM using histone H1 as substrate incubated for 40 mins in presence of [gamma-33ATP] by scintillation counting based radiometry assay relative to control; type: protein-complex assay
T1 sequence (Q00535 whole entry): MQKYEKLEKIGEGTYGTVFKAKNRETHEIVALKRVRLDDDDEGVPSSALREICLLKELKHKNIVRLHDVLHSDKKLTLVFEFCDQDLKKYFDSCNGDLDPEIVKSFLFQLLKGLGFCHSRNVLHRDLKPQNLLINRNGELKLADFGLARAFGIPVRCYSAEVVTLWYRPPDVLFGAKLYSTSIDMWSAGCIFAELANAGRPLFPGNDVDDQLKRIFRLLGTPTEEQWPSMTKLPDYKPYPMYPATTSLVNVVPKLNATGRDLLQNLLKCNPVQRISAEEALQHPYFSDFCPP
T1 sequence (Q15078 99-307 partner limits assumed): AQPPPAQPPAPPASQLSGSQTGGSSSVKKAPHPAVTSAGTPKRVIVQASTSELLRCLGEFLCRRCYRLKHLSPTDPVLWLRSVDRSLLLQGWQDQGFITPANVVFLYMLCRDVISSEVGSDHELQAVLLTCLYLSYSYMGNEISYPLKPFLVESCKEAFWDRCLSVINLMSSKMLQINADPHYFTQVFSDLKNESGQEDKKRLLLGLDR

[6] = biological target: T1, Cyclin-dependent kinase 5/CDK5 activator 1 (Homo sapiens); assay: Inhibition of recombinant full length human CDK5/p25 assessed as residual activity at 10 uM using histone H1 as substrate incubated for 40 mins in presence of [gamma-33ATP] by scintillation counting based radiometry assay relative to control; type: protein-complex assay
[7] = biological target: CDK12/Cyclin K (Homo sapiens) (UniProt O75909+Q9NYV4); assay: Inhibition of recombinant full length human CDK12/cyclinK assessed as residual activity at 10 uM using RSRSRSRSRSRSR as substrate incubated for 40 mins in presence of [gamma-33ATP] by scintillation counting based radiometry assay relative to control; type: protein-complex assay
[8] = biological target: Calcium/calmodulin-dependent protein kinase kinase 1 (Homo sapiens) (UniProt Q8N5S9); assay: Inhibition of recombinant full length human CaMKK1 assessed as residual activity at 10 uM using […] incubated for 40 mins in presence of [gamma-33ATP] by scintillation counting based radiometry assay relative to control
[9] = biological target: Serine/threonine-protein kinase TAO2 (Homo sapiens) (UniProt Q9UL54); assay: Inhibition of recombinant human TAO2 (1 to 320 residues) assessed as residual activity at 10 uM using myelin basic protein as substrate incubated for 40 mins in presence of [gamma33P]ATP by scintillation counting based radiometry assay relative to control
[10] = biological target: Macrophage-stimulating protein receptor (Homo sapiens) (UniProt Q04912); assay: Inhibition of recombinant human Ron (983 to end residues) assessed as residual activity at 10 uM using GGMEDIYFEFMGGKKK as substrate incubated for 40 mins in presence of [gamma33P]ATP by scintillation counting based radiometry assay relative to control
[11] = biological target: Mitogen-activated protein kinase kinase kinase 7 (Homo sapiens) (UniProt O43318); assay: Inhibition of recombinant human TAK1 (1 to 303 residues) assessed as residual activity at 10 uM using casein as substrate incubated for 40 mins in presence of [gamma33P]ATP by scintillation counting based radiometry assay relative to control
Sequence of Mitogen-activated protein kinase kinase kinase 7 (Homo sapiens) (O43318 whole entry, the tested form may be a part): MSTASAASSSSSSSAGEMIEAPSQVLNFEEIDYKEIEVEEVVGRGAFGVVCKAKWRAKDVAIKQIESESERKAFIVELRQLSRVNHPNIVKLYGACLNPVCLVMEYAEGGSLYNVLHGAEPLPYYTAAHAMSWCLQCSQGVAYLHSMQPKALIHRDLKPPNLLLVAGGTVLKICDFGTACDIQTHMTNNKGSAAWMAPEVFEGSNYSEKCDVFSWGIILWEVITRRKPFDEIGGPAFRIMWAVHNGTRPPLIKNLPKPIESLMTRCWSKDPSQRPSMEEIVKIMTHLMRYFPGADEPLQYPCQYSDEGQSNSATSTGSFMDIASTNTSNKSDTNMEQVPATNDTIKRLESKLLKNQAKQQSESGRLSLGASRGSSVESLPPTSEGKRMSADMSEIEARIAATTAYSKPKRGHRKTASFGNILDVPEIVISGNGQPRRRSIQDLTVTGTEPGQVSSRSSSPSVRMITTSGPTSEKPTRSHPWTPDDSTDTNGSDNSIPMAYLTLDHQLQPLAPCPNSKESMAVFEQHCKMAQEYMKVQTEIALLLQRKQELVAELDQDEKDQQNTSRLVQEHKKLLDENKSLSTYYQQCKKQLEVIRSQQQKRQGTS

[12] = biological target: SRSF protein kinase 1 (Homo sapiens) (UniProt Q96SB4); assay: Inhibition of recombinant human SRPK1 (2 to end residues) assessed as residual activity at 10 uM using RSRSRSRSRSRSRSR as substrate incubated for 40 mins in presence of [gamma33P]ATP by scintillation counting based radiometry assay relative to control
[13] = biological target: Vascular endothelial growth factor receptor 1 (Homo sapiens) (UniProt P17948); assay: Inhibition of recombinant human FLT1 (783 to end residues) assessed as residual activity at 10 uM using KKKSPGEYVNIEF as substrate at 40 mins in presence of [gamma-33ATP] by scintillation counting based radiometry assay relative to control
[14] = biological target: Receptor-type tyrosine-protein kinase FLT3 (Homo sapiens) (UniProt P36888); assay: Inhibition of recombinant human FLT3 (564 to end residues) assessed as residual activity at 10 uM using EAIYAAPFAKKK as substrate at 40 mins in presence of [gamma-33ATP] by scintillation counting based radiometry assay relative to control
[15] = biological target: Activated CDC42 kinase 1 (Homo sapiens) (UniProt Q07912); assay: Inhibition of human ACK1 (1 to 389 residues) assessed as residual activity at 10 uM using EFPIYDFLPAKKK as substrate incubated for 40 mins in presence of [gamma-33ATP] by scintillation counting based radiometry assay relative to control
[16] = test system: RAF proto-oncogene serine/threonine-protein kinase (Homo sapiens), P04049 [Y340D,Y341D]; assay: Inhibition of recombinant human C-Raf Y340D/Y341D mutant (306 to end residues) assessed as residual activity at 10 uM poly(Glu, Tyr) 4:1 as substrate incubated 40 mins in presence of [gamma-33ATP] by scintillation counting based radiometry assay relative to control
[17] = biological target: Protein kinase C delta type (Homo sapiens) (UniProt Q05655); assay: Inhibition of recombinant human PKCdelta (2 to end residues) assessed as residual activity at 10 uM using ERMRPRKRQGSVRR as substrate incubated for 40 mins in presence of [gamma33P]ATP by scintillation counting based radiometry assay relative to control
[18] = biological target: Serine/threonine-protein kinase 32C (Homo sapiens) (UniProt Q86UX6); assay: Inhibition of recombinant human full length STK32C assessed as residual activity at 10 uM using casein as substrate incubated for 40 mins in presence of [gamma33P]ATP by scintillation counting based radiometry assay relative to control
[19] = test system: Serine/threonine-protein kinase TAO3 (Homo sapiens), Q9H2K8 [UNDEFINED MUTATION]; assay: Inhibition of recombinant human TAO3 N47S mutant (1 to 411 residues) assessed as residual activity at 10 uM using myelin basic protein as substrate incubated for 40 mins in presence of [gamma33P]ATP by scintillation counting based radiometry assay relative to control
Sequence of Serine/threonine-protein kinase TAO3 (Homo sapiens), Q9H2K8 [UNDEFINED MUTATION] (Q9H2K8 whole entry, looked up, stated change not applied, the tested form may be a part): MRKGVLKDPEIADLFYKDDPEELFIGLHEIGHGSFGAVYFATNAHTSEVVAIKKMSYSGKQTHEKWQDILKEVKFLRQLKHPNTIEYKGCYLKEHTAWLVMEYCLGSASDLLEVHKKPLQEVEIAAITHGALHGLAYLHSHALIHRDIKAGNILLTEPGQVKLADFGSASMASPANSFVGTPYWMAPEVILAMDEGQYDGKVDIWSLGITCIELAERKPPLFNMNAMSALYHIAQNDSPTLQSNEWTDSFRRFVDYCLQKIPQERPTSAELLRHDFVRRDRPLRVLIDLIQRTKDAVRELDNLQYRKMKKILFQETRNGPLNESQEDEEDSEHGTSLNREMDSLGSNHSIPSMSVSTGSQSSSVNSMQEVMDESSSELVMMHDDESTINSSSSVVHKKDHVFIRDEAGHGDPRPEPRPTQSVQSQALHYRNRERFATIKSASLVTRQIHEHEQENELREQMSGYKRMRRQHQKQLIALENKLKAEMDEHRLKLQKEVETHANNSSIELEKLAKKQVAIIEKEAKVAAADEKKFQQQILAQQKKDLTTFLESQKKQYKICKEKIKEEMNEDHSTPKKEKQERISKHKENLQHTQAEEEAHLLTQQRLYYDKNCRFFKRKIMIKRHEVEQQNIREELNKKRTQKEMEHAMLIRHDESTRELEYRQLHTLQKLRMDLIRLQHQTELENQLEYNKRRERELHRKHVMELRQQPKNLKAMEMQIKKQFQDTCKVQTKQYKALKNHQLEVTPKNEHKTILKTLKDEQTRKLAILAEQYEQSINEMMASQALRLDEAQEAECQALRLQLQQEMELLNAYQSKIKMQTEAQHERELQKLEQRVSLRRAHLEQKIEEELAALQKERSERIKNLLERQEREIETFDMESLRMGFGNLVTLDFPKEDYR

[20] = biological target: CDK6/cyclin D3 (Homo sapiens) (UniProt P30281+Q00534); assay: Inhibition of recombinant full length human CDK6/cyclinD3 assessed as residual activity at 10 uM using histone H1 as substrate incubated for 40 mins in presence of [gamma-33ATP] by scintillation counting based radiometry assay relative to control; type: protein-complex assay
[21] = biological target: Tau-tubulin kinase 1 (Homo sapiens) (UniProt Q5TCY1); assay: Inhibition of recombinant human TTBK1 (1 to 479 residues) assessed as residual activity at 10 uM using casein as substrate incubated for 40 mins in presence of [gamma33P]ATP by scintillation counting based radiometry assay relative to control
Sequence of Tau-tubulin kinase 1 (Homo sapiens) (Q5TCY1 whole entry, the tested form may be a part): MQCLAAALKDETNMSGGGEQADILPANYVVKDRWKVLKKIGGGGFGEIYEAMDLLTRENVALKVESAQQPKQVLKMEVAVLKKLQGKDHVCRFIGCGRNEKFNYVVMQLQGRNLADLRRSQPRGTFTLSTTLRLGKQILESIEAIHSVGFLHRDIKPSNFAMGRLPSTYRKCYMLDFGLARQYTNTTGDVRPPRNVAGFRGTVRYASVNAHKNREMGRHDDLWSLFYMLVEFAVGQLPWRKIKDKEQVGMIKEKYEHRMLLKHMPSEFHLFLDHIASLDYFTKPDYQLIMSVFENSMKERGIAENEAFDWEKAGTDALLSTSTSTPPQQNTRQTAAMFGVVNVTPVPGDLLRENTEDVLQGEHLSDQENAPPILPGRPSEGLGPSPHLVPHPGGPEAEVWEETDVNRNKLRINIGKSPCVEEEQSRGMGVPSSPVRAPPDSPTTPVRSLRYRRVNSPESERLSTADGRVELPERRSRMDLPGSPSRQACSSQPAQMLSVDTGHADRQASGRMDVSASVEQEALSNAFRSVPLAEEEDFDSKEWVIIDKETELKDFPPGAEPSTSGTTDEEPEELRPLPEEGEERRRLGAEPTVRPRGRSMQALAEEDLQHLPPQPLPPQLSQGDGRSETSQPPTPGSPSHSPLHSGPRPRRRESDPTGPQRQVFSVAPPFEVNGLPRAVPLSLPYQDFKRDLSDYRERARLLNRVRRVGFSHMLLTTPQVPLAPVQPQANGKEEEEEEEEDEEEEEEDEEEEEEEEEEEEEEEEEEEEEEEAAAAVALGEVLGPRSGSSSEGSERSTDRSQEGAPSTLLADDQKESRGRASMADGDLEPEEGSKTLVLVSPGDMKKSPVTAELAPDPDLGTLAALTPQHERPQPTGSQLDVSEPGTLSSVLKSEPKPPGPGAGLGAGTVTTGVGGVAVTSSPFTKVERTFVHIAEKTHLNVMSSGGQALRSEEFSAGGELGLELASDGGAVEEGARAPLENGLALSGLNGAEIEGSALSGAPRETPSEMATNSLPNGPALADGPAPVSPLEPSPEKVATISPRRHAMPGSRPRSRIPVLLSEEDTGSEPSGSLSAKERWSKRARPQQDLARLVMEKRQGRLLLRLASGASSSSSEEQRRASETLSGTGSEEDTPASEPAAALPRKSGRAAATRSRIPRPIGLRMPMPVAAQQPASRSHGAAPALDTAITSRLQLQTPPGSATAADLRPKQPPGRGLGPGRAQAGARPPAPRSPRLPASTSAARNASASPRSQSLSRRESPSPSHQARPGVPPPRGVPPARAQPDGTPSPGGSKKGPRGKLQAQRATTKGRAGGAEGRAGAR

## C[C@@H](c1ccccc1)n1nnc2cnc3ccc(-c4cnc5[nH]ccc5c4)cc3c21
[1]
  Activity: 82%
[2]
  Activity: 50%
[3]
  Activity: 85%
[4]
  Activity: 59%
[5]
  Activity: 84%
[6]
  Activity: 93%
[7]
  Activity: 83%
[8]
  Activity: 67%
[9]
  Activity: 85%
[10]
  Activity: 79%
[11]
  Activity: 91%
[12]
  Activity: 62%
[13]
  Activity: 49%
[14]
  Activity: 28%
[15]
  Activity: 22%
[16]
  Activity: 77%
[17]
  Activity: 91%
[18]
  Activity: 91%
[19]
  Activity: 68%
[20]
  Activity: 92%
[21]
  Activity: 91%
